{"source": "patent US20250249001A1", "about": "“METHODS OF TREATING SUBSTANCE USE DISORDER WITH 4-(3-CYANOPHENYL)-6-PYRIDINYLPYRIMIDINE MGLU5 NEGATIVE ALLOSTERIC MODULATORS” (Tempero Bio, Inc., priority 2022, published 2025)", "key": {"[1]": {"test_system": "voluntary home-cage alcohol drinking by Wistar rats", "test": "Home-cage two-bottle choice alcohol drinking, acute treatment", "format": "in vivo", "description": "Animals: Male Wistar rats (Charles River Laboratories, INC) were used in these studies. Rat housing and testing was conducted at the University of North Carolina at Chapel Hill (UNC-CH) School of Medicine in a state-of-the-art rodent vivarium approved by the Association for Assessment and Accreditation of Laboratory Animal Care International (AAALAC). Rat health was monitored daily by study investigators and veterinarians in the Division of Comparative Medicine UNC. All experimental procedures were carried out in accordance with the NIH Guide to Care and Use of Laboratory Animals (Committee for the Update of the Guide for the Care and Use of Laboratory Animals, 2011) and institutional guidelines.\nRats were housed individually in standard Plexiglas cages with standard rodent food and water available ad libitum. Upon arrival from the vendor, rats were given 7 days to acclimate to the vivarium during which they were weighed and handled by an investigator each day to monitor general health and habituate them to human contact. Rats were then weighed each day within 1-h of experimental procedures to calculate drug dosages relative to body weight. […] The colony was maintained at […] on a 12-hour light/dark cycle, with the lights on from 10 AM-10 PM. All behavioral experiments were conducted during the light portion of the light cycle.\nHome-cage alcohol drinking method. Oral alcohol and water intake were examined using a two-bottle choice protocol, which is standard in the field and commonly used in our laboratory. Male Wistar rats (n=12) were first adapted to drinking from a 50 ml conical tube fitted with a standard stainless-steel ball bearing sipper tube that limits spillage. Then, two bottles were place on the cage daily. One bottle contained an alcohol solution and the other contained water. Bottles containing fresh solutions were weighed daily before and after a 24 hr access period. After drug treatment, bottles were weighed after 1 hr and 24 hrs of access. Each week, rats had 4-5 days of sweetened alcohol and water available and the remaining days only water.\nBriefly, rats were first exposed to alcohol (10% v/v)+sucrose (5% w/v). versus water in the two bottles. Then, over a period of 6-weeks, the concentrations of alcohol and sucrose were gradually adjusted to alcohol (8% v/v)+sucrose (2% w/v) to achieve intake of pharmacologically relevant doses of alcohol. Rats were maintained at this concentration for the duration of the experiment for both acute (3.1.a) and chronic (3.1.b) home-cage drinking studies. Use of sweetened alcohol solutions in preclinical research provides face validity to the binge-intoxication stage of alcohol addiction in humans where sweeteners are commonly added to alcohol.\nCompound 1 treatment. After establishing baseline intake of sweetened alcohol and water, rats were habituated to i.p. injections. All rats (N=12) were administered 3 habituation injections of vehicle (10% w/v kolliphor in BCD (10%)) prior to the Compound 1 dose response curve and alcohol intake was measured. Then, the Compound 1 dose response curve was conducted with dose order randomized according to a modified Latin-Square design. Rats were given a minimum of 1-2 days between injections to ensure normal drinking was re-established in absence of drug administration. Each dose of Compound 1 (0-10 mg/kg) was administered via i.p. injection and rats were placed back in the home-cage for 1 hr prior to the return of sweetened alcohol and water. Alcohol intake was measured after 1-h and 24-hrs of access in grams by weighing the drinking bottles. Data were excluded from 1 rat that emptied both bottles fully each day without drinking the solutions; thus, results are presented for a final group of N=11 rats.\nEfficacy comparisons to MPEP and Naltrexone. […]"}, "[2]": {"test": "Phase 1 multiple ascending dose study, exposure", "format": "in vivo, healthy subjects", "conditions": "100 mg/day (50 mg twice per day) oral; study suspended at day 9 after dosage of 6 patients", "source_text": "Example 5 presents the protocol for a suspended, multiple ascending dose (MAD) study to evaluate the safety, tolerability, and pharmacokinetics (PK) of Compound 1 in healthy subjects. In the following paragraphs, Example 5 is described in the future tense for sake of brevity; the study was suspended at day 9 after dosage of 6 patients. […] Example 6 presents the protocol for a planned, amended Phase 1 MAD study.\nStudy Objectives and Endpoints—See Table 12 for Study Objectives and Endpoints. There will be up to 4 dose cohorts, and within each cohort subjects will be randomly assigned to receive either active drug or placebo. Study subjects will be administered active drug or placebo twice daily for 14 days (note: only the AM dose is administered on Day 14).\nEach subject will be randomly assigned to 1 of the following cohorts: Cohort 1: Group 1 (6 subjects): 50 mg of Compound 1 twice daily (bid); Group 2 (2 subjects): placebo (matching Compound 1) bid. Cohort 2: Group 3 (6 subjects): 100 mg of Compound 1 bid; Group 4 (2 subjects): placebo (matching Compound 1) bid. Cohort 3: Group 5 (6 subjects): 150 mg of Compound 1 bid; Group 6 (2 subjects): placebo (matching Compound 1) bid."}}, "data": [{"smiles": "N#Cc1cc(Cl)cc(-c2cc(-c3ccc(F)cn3)ncn2)c1", "note": "[Compound 1, 3-chloro-5-[6-(5-fluoropyridin-2-yl)pyrimidin-4-yl]benzonitrile]", "values": [{"measurement": "alcohol intake after 24-hrs of access vs vehicle", "setting": "[1]; 10 mg/kg i.p. acute", "value": "did not achieve statistical significance"}, {"measurement": "dosage giving the greatest reduction in EtOH intake", "setting": "[1]; 1-hr access, dose range 0-10 mg/kg i.p.", "value": 3, "unit": "mg/kg"}, {"measurement": "alcohol intake (EtOH g/kg/1-h) after 1-hr access vs vehicle control", "setting": "[1]; Compound 1 1, 3, and 10 mg/kg i.p. acute, 1 hr before access, sweetened alcohol, N=11", "value": "significantly decreased alcohol intake"}, {"measurement": "alcohol intake after 24-hrs of access vs vehicle", "setting": "[1]; Compound 1 1 and 3 mg/kg i.p. acute", "value": "significantly decreased alcohol intake"}, {"measurement": "alcohol intake at the 24-hr measurement interval, comparison of equivalent doses", "setting": "[1]; each drug 3 mg/kg i.p. acute", "value": "maintained efficacy"}, {"measurement": "alcohol drinking at 1-hr of access vs vehicle control, positive control comparison", "setting": "[1]; each drug 3 mg/kg i.p. acute, N=11", "value": "significantly decreased alcohol drinking"}, {"measurement": "exposure in healthy subjects", "setting": "[2]", "value": "greater than expected exposure"}]}]}
